According to ChEMBL document CHEMBL1932984, “Novel bis(indolyl)hydrazide-hydrazones as potent cytotoxic agents” (Bioorg Med Chem Lett, 2012):

Columns and labels:
Assay type in all cases: functional, cell-based
[1] = tested on: MCF7; assay: Cytotoxicity against human MCF7 cells
[2] = tested on: MDA-MB-231; assay: Cytotoxicity against human MDA-MB-231 cells
[3] = tested on: LNCaP; assay: Cytotoxicity against human LNCAP cells
[4] = tested on: PC-3; assay: Cytotoxicity against human PC3 cells
[5] = tested on: MIA PaCa-2; assay: Cytotoxicity against human MIAPaCa2 cells
[6] = tested on: DU-145; assay: Cytotoxicity against human DU145 cells

Structure (SMILES) | IC50 [1] | IC50 [2] | IC50 [3] | IC50 [4] | IC50 [5] | IC50 [6]
Cn1cc(C(=O)N/N=C\c2cn(Cc3ccc(Cl)cc3)c3cc(F)ccc23)c2ccccc21 | 90.6 µM | > 100 µM | > 100 µM | 22.1 µM | 50.4 µM | 84.2 µM
COc1ccc(Cn2cc(/C=N\NC(=O)c3c[nH]c4ccccc34)c3cc(OC)ccc32)cc1 | 15 µM | 9.8 µM | > 100 µM | 13.6 µM | 30.5 µM | 19.1 µM
COc1ccc2c(c1)c(/C=N\NC(=O)c1cn(C)c3ccccc13)cn2Cc1ccc(Cl)cc1 | 99.1 µM | > 100 µM | > 100 µM | 21.2 µM | 56.4 µM | 93 µM
COc1cccc2c1C(=O)c1c(O)c3c(c(O)c1C2=O)C[C@@](O)(C(=O)CO)C[C@@H]3O[C@H]1C[C@H](N)[C@H](O)[C@H](C)O1 [DOXORUBICIN] | 11.7 µM | 3.07 µM | 5.23 µM | 62.3 µM | 18.2 µM | 15.7 µM
COc1ccc(Cn2cc(/C=N\NC(=O)c3c[nH]c4ccc(Br)cc34)c3ccc(F)cc32)cc1 | 31.7 µM | 99.8 µM | > 100 µM | 21.8 µM | 45.5 µM | 67.5 µM
COc1ccc(Cn2cc(/C=N\NC(=O)c3c[nH]c4ccccc34)c3ccccc32)cc1 | 12.4 µM | 15.1 µM | 31.9 µM | 14.6 µM | 41.6 µM | 43.9 µM
O=C(N/N=C\c1cn(Cc2ccc(Cl)cc2)c2ccccc12)c1c[nH]c2ccccc12 | 96.7 µM | 66.4 µM | > 100 µM | 16.2 µM | 44.3 µM | 52.1 µM
O=C(N/N=C\c1cn(Cc2ccc(Cl)cc2)c2ccc(Br)cc12)c1c[nH]c2ccccc12 | 3.2 µM | 1 µM | 3.7 µM | 12.4 µM | 8.7 µM | 3.6 µM
COc1ccc2c(c1)c(/C=N\NC(=O)c1c[nH]c3ccccc13)cn2Cc1ccc(Cl)cc1 | 8.7 µM | 82.7 µM | > 100 µM | 30.3 µM | 26.7 µM | 50 µM
COc1ccc(Cn2cc(/C=N\NC(=O)c3c[nH]c4ccc(Br)cc34)c3cc(OC)ccc32)cc1 | 3.1 µM | 61.2 µM | > 100 µM | 28 µM | 44.5 µM | 84.4 µM
COc1ccc2c(c1)c(/C=N\NC(=O)c1c[nH]c3ccc(Br)cc13)cn2Cc1ccc(Cl)cc1 | 29.1 µM | 5 µM | > 100 µM | 15.9 µM | 26.3 µM | 57 µM
COc1ccc(Cn2cc(/C=N\NC(=O)c3c[nH]c4ccccc34)c3ccc(F)cc32)cc1 | 13.1 µM | 71.2 µM | > 100 µM | 18.4 µM | 43.3 µM | 16.2 µM
O=C(N/N=C\c1cn(Cc2ccc(Cl)cc2)c2cc(F)ccc12)c1c[nH]c2ccc(Br)cc12 | 8.3 µM | 5.1 µM | 24.8 µM | 12.4 µM | 10.6 µM | 12.5 µM
O=C(N/N=C\c1cn(Cc2ccc(Cl)cc2)c2cc(F)ccc12)c1c[nH]c2ccccc12 | 6 µM | 5.3 µM | 55.2 µM | 19.5 µM | 18 µM | 18.6 µM
COc1ccc(Cn2cc(/C=N\NC(=O)c3cn(C)c4ccccc34)c3ccc(F)cc32)cc1 | 22.6 µM | 17.7 µM | 9.6 µM | 12.8 µM | 55.8 µM | 15.2 µM
